Data taken from US20230081426A1, “COMPOUNDS AND METHODS FOR KRAS MODULATION AND INDICATIONS THEREFOR” (Plexxikon Inc., priority 2020, published 2023).
Read-outs that look alike come from different tables or passages of the source.

Biological target: T1, G12D-mutant human KRAS (amino acid residues 1-188) (Homo sapiens, UniProt P01116, G12D)
T1 construct: G12D or G12C-mutant human KRAS (amino acid residues 1-188) with FLAG tag; made in house; host or cells: E. coli
Test: KRAS Binding Disruption Assay (AlphaScreen; biotinylated KRpep-2d analogue or RAF1-RBD), G12D
Conditions: geometric mean, read-out: KRAS GMean IC50 (uM) MUTATION: G12D
Description: Compound binding disrupts the interaction of KRpep-2d or RAF1-RBD with KRAS, leading to a decrease in Alpha signal.
All assay components were prepared in 20 mM HEPES (pH 7.5), 100 mM NaCl, 5 mM MgCl2, 0.01% Tween-20, and 0.01% BSA. Biotinylated analogues of KRpep-2d were custom synthesized. The binding disruption assays were performed using 5-20 nM of mutant KRAS and 5-20 nM of either biotinylated KRpep-2d analogue or RAF1-RBD. 19 μL of KRAS protein and 4 μL of biotinylated KRpep-2d or RAF1-RBD were added to the wells of a 384-well plate containing 1 μL of various concentrations of test compound or DMSO vehicle. 16 wells containing KRAS, biotinylated KRpep-2d or RAF1-RBD, and 5% DMSO served as high controls. 16 wells containing KRAS only and 5% DMSO served as low controls. Binding reactions were incubated for 1 hour at 25° C., then Anti-Flag Acceptor and Streptavidin Donor Alpha beads were added at a final concentration of 10 μg/mL for an additional hour at room temperature. Alpha signal was read out on a Perkin Elmer Envision HTS instrument. The percentage inhibition at individual compound concentrations relative to high and low controls was calculated. The data were analyzed by using nonlinear regression to generate IC50 values.

T1 sequence (P01116 1-188 isoform P01116-2 G12D): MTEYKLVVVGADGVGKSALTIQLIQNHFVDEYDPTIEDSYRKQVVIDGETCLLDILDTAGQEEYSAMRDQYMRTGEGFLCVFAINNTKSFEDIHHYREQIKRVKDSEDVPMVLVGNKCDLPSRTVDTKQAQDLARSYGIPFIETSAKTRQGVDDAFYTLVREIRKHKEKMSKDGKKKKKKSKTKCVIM

Compound | IC50 (KRAS G12D) [µM] | IC50 (Table 4, comparison with compounds of WO 2017/172979) [µM]
C#Cc1cccc2[nH]cc(-c3ccc4c(N5C[C@H]6CC[C@@H](C5)N6)nc(OCC56CCCN5CCC6)nc4c3F)c12 [P-0513, 4-((1R,5S)-3,8-diazabicyclo[3.2.1]octan-3-yl)-7-(4-ethynyl-1H-indol-3-yl)-8-fluoro-2-((tetrahydro-1H-pyrrolizin-7a(5H)-yl)methoxy)quinazoline] | 0.0001 to 10 | 
CC(=O)c1cccc2cccc(-c3ccc4c(N5C[C@H]6CC[C@@H](C5)N6)nc(OCC56CCCN5CCC6)nc4c3F)c12 [P-0522, 1-(8-(4-((1R,5S)-3,8-diazabicyclo[3.2.1]octan-3-yl)-8-fluoro-2-((tetrahydro-1H-pyrrolizin-7a(5H)-yl)methoxy)quinazolin-7-yl)naphthalen-1-yl)ethan-1-one] | 0.0001 to 10 | 
CCc1cccc2c1N(c1ccc3c(N4C[C@H]5CC[C@@H](C4)N5)nc(OCC45CCCN4CCC5)nc3c1F)CCC2 [P-0559, 4-((1R,5S)-3,8-diazabicyclo[3.2.1]octan-3-yl)-7-(8-ethyl-3,4-dihydroquinolin-1(2H)-yl)-8-fluoro-2-((tetrahydro-1H-pyrrolizin-7a(5H)-yl)methoxy)quinazoline] | 0.0001 to 10 | 
Cc1ccc2[nH]ncc2c1-c1c(Cl)cc2c(N3C[C@H]4CC[C@@H](C3)N4)nc(OCC34CCCN3CCC4)nc2c1F [P-0523, 4-((1R,5S)-3,8-diazabicyclo[3.2.1]octan-3-yl)-6-chloro-8-fluoro-7-(5-methyl-1H-indazol-4-yl)-2-((tetrahydro-1H-pyrrolizin-7a(5H)-yl)methoxy)quinazoline] | 0.0001 to 10 | 
Fc1c(-c2csc3cccc(Cl)c23)ccc2c(N3C[C@H]4CC[C@@H](C3)N4)nc(OCC34CCCN3CCC4)nc12 [P-0534] | 0.0001 to 10 | 
CC(C)(CO)COc1nc(N2C[C@H]3CC[C@@H](C2)N3)c2ccc(-c3cccc4cccc(Cl)c34)c(F)c2n1 [P-0541, 3-((4-((1R,5S)-3,8-diazabicyclo[3.2.1]octan-3-yl)-7-(8-chloronaphthalen-1-yl)-8-fluoroquinazolin-2-yl)oxy)-2,2-dimethylpropan-1-ol] | 0.0001 to 10 | 
CCc1cc(F)cc2[nH]cc(-c3ccc4c(N5C[C@H]6CC[C@@H](C5)N6)nc(OCC56CCCN5CCC6)nc4c3F)c12 [P-0535, 4-((1R,5S)-3,8-diazabicyclo[3.2.1]octan-3-yl)-7-(4-ethyl-6-fluoro-1H-indol-3-yl)-8-fluoro-2-((tetrahydro-1H-pyrrolizin-7a(5H)-yl)methoxy)quinazoline] | 0.0001 to 10 | 
NC(=O)NCCN1[C@@H]2CC[C@H]1CN(c1nc(OCC34CCCN3CCC4)nc3c(F)c(-c4cc(O)cc5ccccc45)ccc13)C2 [P-0543, 1-(2-((1R,5S)-3-(8-fluoro-7-(3-hydroxynaphthalen-1-yl)-2-((tetrahydro-1H-pyrrolizin-7a(5H)-yl)methoxy)quinazolin-4-yl)-3,8-diazabicyclo[3.2.1]octan-8-yl)ethyl)urea] | 0.0001 to 10 | 
Fc1c(-c2cncc3cccc(Cl)c23)ccc2c(N3C[C@H]4CC[C@@H](C3)N4)nc(OCC34CCCN3CCC4)nc12 [P-0572, 4-((1R,5S)-3,8-diazabicyclo[3.2.1]octan-3-yl)-7-(5-chloroisoquinolin-4-yl)-8-fluoro-2-((tetrahydro-1H-pyrrolizin-7a(5H)-yl)methoxy)quinazoline] | 0.0001 to 10 | 
NCC1(COc2nc(N3C[C@H]4CC[C@@H](C3)N4)c3ccc(-c4cc(O)cc5ccccc45)c(F)c3n2)CC(F)(F)C1 [P-0580, 4-(2-((1-(aminomethyl)-3,3-difluorocyclobutyl)methoxy)-4-((1R,5S)-3,8-diazabicyclo[3.2.1]octan-3-yl)-8-fluoroquinazolin-7-yl)naphthalen-2-ol] | 0.0001 to 10 | 

The remaining lines, values ahead:

IC50 (KRAS G12D) [µM] | IC50 (Table 4, comparison with compounds of WO 2017/172979) [µM] | Compound
0.0001 to 10 |  | NC1(CO)CN(c2nc(N3C[C@H]4CC[C@@H](C3)N4)c3ccc(-c4cc(O)cc5ccccc45)c(F)c3n2)C1 [P-0577, 4-(2-(3-amino-3-(hydroxymethyl)azetidin-1-yl)-4-((1R,5S)-3,8-diazabicyclo[3.2.1]octan-3-yl)-8-fluoroquinazolin-7-yl)naphthalen-2-ol]
 | 16.5 | CN(C)CCCOc1nc(N2CCN(C)CC2)c2cc(Cl)c(-c3cc(O)cc4ccccc34)c(F)c2n1 [Compound 149 in WO 2017/172979, reference compound]
0.0001 to 10 |  | CN1CCC[C@H]1COc1nc(N2C[C@@H]3CC[C@H]2CN3)c2ccc(-c3cc(O)cc4ccccc34)cc2n1 [P-0011, 4-(4-((1S,4S)-2,5-diazabicyclo[2.2.2]octan-2-yl)-2-(((S)-1-methylpyrrolidin-2-yl)methoxy)quinazolin-7-yl)naphthalen-2-ol]
0.0001 to 10 |  | CC(CO)(CO)COc1nc(N2C[C@H]3CC[C@@H](C2)N3)c2ccc(-c3cc(O)cc4ccccc34)c(F)c2n1 [P-0525, 2-(((4-((1R,5S)-3,8-diazabicyclo[3.2.1]octan-3-yl)-8-fluoro-7-(3-hydroxynaphthalen-1-yl)quinazolin-2-yl)oxy)methyl)-2-methylpropane-1,3-diol]
0.0001 to 10 |  | Oc1cc(-c2ccc3c(N4C[C@H]5CC[C@@H](C4)N5Cc4ccccn4)nc(OCC45CCCN4CCC5)nc3c2)c2ccccc2c1 [P-0076, 4-(4-((1R,5S)-8-(pyridin-2-ylmethyl)-3,8-diazabicyclo[3.2.1]octan-3-yl)-2-((tetrahydro-1H-pyrrolizin-7a(5H)-yl)methoxy)quinazolin-7-yl)naphthalen-2-ol]
10 to 100 |  | CN(CC(C)(C)CO)c1nc(N2C[C@H]3CC[C@@H](C2)N3)c2ccc(-c3cc(O)cc4ccccc34)c(F)c2n1 [P-0568, 4-(4-((1R,5S)-3,8-diazabicyclo[3.2.1]octan-3-yl)-8-fluoro-2-((3-hydroxy-2,2-dimethylpropyl)(methyl)amino)quinaz-olin-7-yl)naphthalen-2-ol]
0.0001 to 10 |  | Cc1ccc2[nH]ncc2c1-c1c(F)cc2c(N3C[C@H]4CC[C@@H](C3)N4)nc(OCC34CCCN3CCC4)nc2c1F [P-0593, 4-((1R,5S)-3,8-diazabicyclo[3.2.1]octan-3-yl)-6,8-difluoro-7-(5-methyl-1H-indazol-4-yl)-2-((tetrahydro-1H-pyrrolizin-7a(5H)-yl)methoxy)quinazoline]
0.0001 to 10 |  | Oc1cc(-c2ccc3c(N4C[C@H]5CC[C@@H](C4)N5)nc(N4CCC5(CNC5)C4)nc3c2F)c2ccccc2c1 [P-0508, 4-(4-((1R,5S)-3,8-diazabicyclo[3.2.1]octan-3-yl)-8-fluoro-2-(2,6-diazaspiro[3.4]octan-6-yl)quinazolin-7-yl)naphthalen-2-ol]
0.0001 to 10 |  | CCCc1cccc2[nH]cc(-c3ccc4c(N5C[C@H]6CC[C@@H](C5)N6)nc(OCC56CCCN5CCC6)nc4c3F)c12 [P-0598, 4-((1R,5S)-3,8-diazabicyclo[3.2.1]octan-3-yl)-8-fluoro-7-(4-propyl-1H-indol-3-yl)-2-((tetrahydro-1H-pyrrolizin-7a(5H)-yl)methoxy)quinazoline]
0.0001 to 10 |  | OCCC1CN(c2nc(N3C[C@H]4CC[C@@H](C3)N4)c3ccc(-c4cc(O)cc5ccccc45)c(F)c3n2)C1 [P-0564, 4-(4-((1R,5S)-3,8-diazabicyclo[3.2.1]octan-3-yl)-8-fluoro-2-(3-(2-hydroxyethyl)azetidin-1-yl)quinazolin-7-yl)naphthalen-2-ol]
0.0001 to 10 |  | CCc1cccc2c1N(c1ncc3c(N4C[C@H]5CC[C@@H](C4)N5)nc(OCC45CCCN4CCC5)nc3c1F)CCC2 [P-0558, 4-((1R,5S)-3,8-diazabicyclo[3.2.1]octan-3-yl)-7-(8-ethyl-3,4-dihydroquinolin-1(2H)-yl)-8-fluoro-2-((tetrahydro-1H-pyrrolizin-7a(5H)-yl)methoxy)pyrido[4,3-d]pyrimidine]
0.0001 to 10 |  | Nc1ccc(Cl)c(-c2c(F)cc3c(N4C[C@H]5CC[C@@H](C4)N5)nc(OCC45CCCN4CCC5)nc3c2F)c1 [P-0595, 3-(4-((1R,5S)-3,8-diazabicyclo[3.2.1]octan-3-yl)-6,8-difluoro-2-((tetrahydro-1H-pyrrolizin-7a(5H)-yl)methoxy)quinazolin-7-yl)-4-chloroaniline]
0.0001 to 10 |  | Oc1cc(-c2ccc3c(N4C[C@H]5CC[C@@H](C4)N5)nc(OCC4(C(F)(F)F)CC4)nc3c2F)c2ccccc2c1 [P-0536, 4-(4-((1R,5S)-3,8-diazabicyclo[3.2.1]octan-3-yl)-8-fluoro-2-((1-(trifluoromethyl)cyclopropyl)methoxy)quinazolin-7-yl)naphthalen-2-ol]
0.0001 to 10 |  | OCC1(CNc2nc(N3C[C@H]4CC[C@@H](C3)N4)c3ccc(-c4cc(O)cc5ccccc45)c(F)c3n2)COC1 [P-0581, 4-(4-((1R,5S)-3,8-diazabicyclo[3.2.1]octan-3-yl)-8-fluoro-2-(((3-(hydroxymethyl)oxetan-3-yl)methyl)amino)quinazolin-7-yl)naphthalen-2-ol]
0.0001 to 10 |  | Fc1c(-c2csc3ccccc23)ccc2c(N3C[C@H]4CC[C@@H](C3)N4)nc(OCC34CCCN3CCC4)nc12 [P-0533, 7-(benzo[b]thiophen-3-yl)-4-((1R,5S)-3,8-diazabicyclo[3.2.1]octan-3-yl)-8-fluoro-2-((tetrahydro-1H-pyrrolizin-7a(5H)-yl)methoxy)quinazoline]
